# Conditions: buffer; pH 7.4; 200.0 µM
row,Structure (SMILES),solubility kinetic
1,COc1ccc(C(=O)CC(=O)C(=O)Nc2cccc(C(C)=O)c2)cc1,13.9 µg/mL
2,COC(=O)/C(C#N)=C/c1ccc(N2CCOCC2)c([N+](=O)[O-])c1,11 µg/mL
3,CCOC(=O)C1CCN(c2ncnc3c(C)csc23)CC1,37.8 µg/mL
4,CC#CC(=O)N1CCCC(C(=O)c2ccc(SC)cc2)C1 (stereo not drawn),> 45.2 µg/mL
5,COc1cc(-c2noc(CCC(=O)NC3CCCCC3)n2)cc(OC)c1OC,10 µg/mL
6,CC(=O)c1sc(NCc2ccc(C)cc2)nc1C,38.6 µg/mL
7,O=C(Cc1ccccc1)Nc1ccc2oc(=O)ccc2c1,39.9 µg/mL
8,O=C(Cc1ccc(F)cc1)Nc1nc(-c2ccc(F)cc2)cs1,< 0.4 µg/mL
9,CC12CC3CC(C)(C1)CC(C(=O)NCc1cccnc1)(C3)C2,> 44.8 µg/mL
10,OC(C#CCCN1CCCCC1)(c1ccccc1)C1CCCCC1 (stereo not drawn),25.1 µg/mL
11,N#CN(Cc1ccccc1)Cc1ccccc1,18.6 µg/mL
12,Cc1cnc(NS(=O)(=O)c2ccccc2)c(Br)c1,> 49.1 µg/mL
13,COc1cccc(C(=O)NCCCNC(=O)c2ccco2)c1,40.8 µg/mL
14,CCCCNc1c(N)n(CCC)c(=O)[nH]c1=O,> 36 µg/mL
15,O=S(=O)(NCc1cn2ccccc2n1)c1ccccc1F,> 45.8 µg/mL
16,COc1ccc(Nc2c(-c3ccco3)nc3cccc(C)n23)cc1,1.2 µg/mL
17,COc1ccc2c(c1)c(CC(=O)OCC(=O)O)c(C)n2C(=O)c1ccc(Cl)cc1,> 62.4 µg/mL
18,COc1ccc(/C=C/C(=O)N(C)c2ccccc2C(=O)O)cc1,45.2 µg/mL
19,Nc1c(Cl)ncnc1NCCc1ccc(O)cc1,37.1 µg/mL
20,CCC(C(=O)N/N=C(\C)c1cccnc1)c1ccccc1 (stereo not drawn),> 42.2 µg/mL
21,Cc1ccc(OC(=O)c2ccncc2)c(C)c1,23.9 µg/mL
22,COC(=O)CN1C(=O)N/C(=C/c2ccc(OC)cc2)C1=O,17.4 µg/mL
23,CC1CC(C)(C)NC(=S)N1CCCC(=O)NCc1ccccc1 (stereo not drawn),> 50 µg/mL
24,CCOC(=O)Nc1ccc2nc3n(c(=O)c2c1)CCCCC3,9.1 µg/mL

row,Structure (SMILES),solubility kinetic
1,Cc1nc(NC(=O)CSc2nc(N)cc(N)n2)sc1C,> 46.6 µg/mL
2,Cc1ccc(OCC(=O)N2CCC3(CC2)CC(=O)c2ccccc2O3)cc1,54.2 µg/mL
3,COC(=O)C1CCN(C(=O)COc2ccc(S(=O)(=O)N3CCOCC3)cc2Cl)CC1,> 69.1 µg/mL
4,Cn1c(=S)[nH]c2sc3c(c2c1=O)CCC(C(C)(C)C)C3 (stereo not drawn),< 0.3 µg/mL
5,CC1CCCN(C(=O)c2cc(-c3cccs3)nc3ccccc23)C1 (stereo not drawn),17.2 µg/mL
6,CN(C)CCNC(=O)Cc1ncc(C(F)(F)F)cc1Cl,> 46.5 µg/mL
7,COc1ccccc1OCC#CCSc1ncccn1,> 43 µg/mL
8,Cc1ccc(-n2c(N)c(Br)c(=O)[nH]c2=O)cc1C,> 46.5 µg/mL
9,CCOc1ccccc1NC(=O)Cn1c(=O)sc2ccccc21,1.2 µg/mL
10,N#Cc1c(-c2ccco2)ccn(Cc2cccc(F)c2)c1=O,3.2 µg/mL
11,CN(C)S(=O)(=O)c1cccc(COc2cccnc2[N+](=O)[O-])c1,12.1 µg/mL
12,COCCNC(=O)c1cc(C(=O)CC(C)C)c[nH]1,> 37.8 µg/mL
13,CCCCCCNc1c([N+](=O)[O-])c(=O)sc2ccccc12,4.4 µg/mL
14,O=C(O)c1cccnc1SCc1cccc(Br)c1,> 48.6 µg/mL
15,CC(C)C(NC(=O)c1c(F)cccc1F)C(=O)N1CCN(c2ncccn2)CC1 (stereo not drawn),12.1 µg/mL
16,O=NN1CCN(c2ccncc2S(=O)(=O)N2CCCCC2)CC1,> 50.9 µg/mL
17,COCCNc1nc(N)c([N+](=O)[O-])c(Nc2ccc(F)cc2)n1,0.9 µg/mL
18,O=C(CN1C(=O)COc2ccc(Cl)cc21)N1CCOCC1,> 46.6 µg/mL
19,CCOc1ccc(Nc2ccc([N+](=O)[O-])c3nonc23)cc1,15.2 µg/mL
20,COCc1c(CCl)cnc(C)c1O,> 30.2 µg/mL
21,O=C(CSCc1c(F)cccc1Cl)NCCSCc1ccco1,36.8 µg/mL
22,O=C(CSc1ccc(F)cc1)Nc1ccc(C2SCCS2)cc1,< 0.8 µg/mL
23,Cc1[nH]c2ccccc2c1C(=O)C(=O)NCCOc1ccccc1,2.2 µg/mL
24,O=C(NCC(c1ccc(F)cc1)N1CCOCC1)c1ccc(-c2ccccc2)cc1 (stereo not drawn),3.2 µg/mL

row,Structure (SMILES),solubility kinetic
1,Cc1ccnc2c1ccc1ccccc12,< 0.4 µg/mL
2,O=C(Nc1nc2ccccc2n1CCN1CCOCC1)c1ccccc1,51.4 µg/mL
3,Cc1onc(-c2ccccc2Cl)c1C(=O)N1CCC(C)CC1,> 47.8 µg/mL
4,Cc1ccc(CNC(=O)CCSCc2ccc(C)cc2)cc1,14.3 µg/mL
5,O=C(NCc1ccccc1)C1(c2cccc(F)c2)CCCC1,12.2 µg/mL
6,O=C(Nc1cccc(O)c1)c1cccc(S(=O)(=O)Nc2cccc(O)c2)c1,> 57.7 µg/mL
7,COc1ccccc1NS(=O)(=O)c1cc(NC(=O)C2CCCO2)ccc1C (stereo not drawn),> 58.6 µg/mL
8,O=C1CCNc2c(Cl)cccc21,20.9 µg/mL
9,O=C1C=C(NCCOC23CC4CC(CC(C4)C2)C3)C2(CCCCC2)O1,4 µg/mL
10,CCOC(=O)N1CCN(C(=O)C(C)c2ccc([N+](=O)[O-])cc2)CC1 (stereo not drawn),> 50.3 µg/mL
11,COc1ccc(OC)c(C(=O)Cn2cnc3ccccc3c2=O)c1,0.9 µg/mL
12,Cc1ccccc1OCCn1ccnc1,24.5 µg/mL
13,COc1ccc2[nH]c3c(NCCCOC(C)C)ncnc3c2c1,44.7 µg/mL
14,Cc1nc2ccccc2c(=O)n1-c1ccncc1,29.1 µg/mL
15,COC(=O)c1ccc(NC(=S)N2CCN(C)CC2)cc1,> 44 µg/mL
16,CCn1c(O)c(C=NCCN2CCOCC2)c(=O)[nH]c1=S,> 46.9 µg/mL
17,CCOC(=O)Cc1csc(NC(=O)COc2ccc(C)cc2)n1,> 50.2 µg/mL
18,CCCC(=O)Nc1ccc(S(=O)(=O)Nc2nccs2)cc1,30.4 µg/mL
19,CC(=O)c1sc(NC(=O)c2ccc(C)c(C)c2)nc1C,< 0.3 µg/mL
20,CCOC(=O)C1=C(C)OC(N)=C(C#N)C1c1cccs1 (stereo not drawn),17.1 µg/mL
21,COc1ccc(-c2ccc(C(=O)O)o2)c([N+](=O)[O-])c1,> 39.5 µg/mL
22,COc1ccc(OC)c(CN2CCCC(C(=O)c3sccc3C)C2)c1 (stereo not drawn),> 53.9 µg/mL
23,Cc1ccc(NC(=O)CNC(=O)c2ccc(C(C)(C)C)cc2)cc1S(=O)(=O)N1CCOCC1,16.1 µg/mL
24,O=C(Nc1ccc(OC(F)(F)F)cc1)c1ccc2nc[nH]c2c1,14.9 µg/mL

row,Structure (SMILES),solubility kinetic
1,O=C(/C=C/c1ccco1)NCCc1ccc(F)cc1,10.3 µg/mL
2,CCCCOc1ccc(S(=O)(=O)N2CCCCC2)cc1,1.1 µg/mL
3,COc1ccc(NC(=O)c2ccc(C)cc2)cc1,5.4 µg/mL
4,COc1ccc(OC)c(-c2nc3ccccc3nc2-c2ccccc2)c1,0.6 µg/mL
5,COC(=O)Cn1cc(C(=O)C(C)(C)C)c2ccccc21,37.1 µg/mL
6,CCOc1ccc(C(=O)OC(C)C(=O)N2CCN(Cc3ccccc3)CC2)cc1 (stereo not drawn),> 59.5 µg/mL
7,Cn1cc(C(=O)NCCO)c(=O)c2ccccc21,> 36.9 µg/mL
8,CSc1ccc(Cl)c(C(=O)OCC(=O)N2CCNC2=O)c1,> 49.3 µg/mL
9,CNC(=O)c1cc(S(=O)(=O)NC2CCCCCC2)ccc1C,> 48.7 µg/mL
10,CN(C)S(=O)(=O)c1cccc(C(=O)N2CCN(C(=O)C3CCCO3)CC2)c1 (stereo not drawn),> 59.3 µg/mL
11,O=C(NCc1cccnc1)C(=O)C1C(=O)Nc2ccccc21 (stereo not drawn),42.5 µg/mL
12,Cc1ccc(S(=O)(=O)N2C(=O)c3cccc4cccc2c34)cc1,3.7 µg/mL
13,CCc1ccccc1N1C(=O)[C@@H]2Cc3ccccc3CN2C1=O,43.1 µg/mL
14,CCOP(=O)(OCC)C(NC(=O)CC(C)C)C(Cl)(Cl)Cl (stereo not drawn),> 55.3 µg/mL
15,O=C1Cc2ccccc2C(=O)N1c1ccc(F)cc1Cl,37.3 µg/mL
16,O=C(C[n+]1ccc2ccccc2c1)c1ccccc1.[Br-],> 49.2 µg/mL
17,COc1ccc(C(C)=O)cc1Cn1nc(C)c([N+](=O)[O-])c1C,> 45.5 µg/mL
18,CN(CCC(=O)c1ccccc1)CCC(=O)c1ccccc1,42.3 µg/mL
19,Cc1ccc(NC(=O)c2ccc(C(=O)c3ccccc3)cc2)nc1,5.1 µg/mL
20,COc1cc2ccccc2cc1C(=O)Nc1ccccc1C,< 0.6 µg/mL
21,COc1ccc(NS(=O)(=O)c2ccc(C(=O)N3CCCCCC3)cc2)cc1,> 58.3 µg/mL
22,O=C(NCc1ccco1)C1CCCN1C(=O)Nc1ccc(Cl)cc1 (stereo not drawn),3.4 µg/mL
23,CN1C[C@@H]2C[C@@H](c3cccn3-c3nccs3)N3CCC[C@@]23C1=O,47.2 µg/mL
24,O=S(=O)(/C=C/c1ccccc1)N1CCc2ccccc2C1,< 0.6 µg/mL

row,Structure (SMILES),solubility kinetic
1,COc1ccc(NC(=O)CCCc2nc3ccccc3c(=O)[nH]2)cc1Cl,14.5 µg/mL
2,O=C(O)CCC(=O)Nc1ccc(-c2nc3ccc(C(=O)c4ccccc4)cc3[nH]2)cc1,60.1 µg/mL
3,CC(C)[C@H](NS(=O)(=O)c1ccccc1)C(=O)OCC(=O)NCc1ccc2c(c1)OCO2,> 67.3 µg/mL
4,CNc1cc(Cl)nc(SC)n1,> 28.4 µg/mL
5,CN(CCc1nnc(N)s1)[N+](=O)[O-],> 30.5 µg/mL
6,Cn1cc(C(=O)C(=O)N2CCOCC2)c2ccccc21,> 40.8 µg/mL
7,COC(=O)C1CN(C(=O)COc2ccccc2)c2ccccc2O1 (stereo not drawn),48.7 µg/mL
8,CCC(C)NC(=O)C1c2ccccc2C(=O)N1Cc1ccccc1 (stereo not drawn),38.4 µg/mL
9,CCOCCCNc1c(CC)c(C)c(C#N)c2nc3ccccc3n12,6.5 µg/mL
10,CSc1ncc(C(=O)Nc2cc(C)ccc2C)c(C)n1,> 43.1 µg/mL
11,CN1CCc2c(sc3nc(NCCO)n(-c4cccc(Cl)c4)c(=O)c23)C1,58.3 µg/mL
12,N/C(=N\O)c1ccc([N+](=O)[O-])s1,> 28.1 µg/mL
13,CO/N=C1\CCn2c1c(C)c1ccccc12,0.8 µg/mL
14,O=C(O)c1ccc(/C=N/N2CCN(c3ccccc3)CC2)cc1,> 46.4 µg/mL
15,CC(C)(C)C(=O)NC1(C(F)(F)F)NC(=O)N(c2ccccc2F)C1=O (stereo not drawn),> 54.2 µg/mL
16,CCN(CC(=O)Nc1ccc(NC(C)=O)cc1)C(=O)c1ccc(=O)[nH]c1,50.4 µg/mL
17,O=C1N=C(N2CCN(c3ccccc3)CC2)S/C1=C/c1ccco1,17.4 µg/mL
18,O=C(CNC(=O)c1ccccc1F)NCc1ccncc1,> 43.1 µg/mL
19,COc1ccc(Cc2c(O)nc(SCC(=O)N3CCOCC3)[nH]c2=O)cc1,> 58.7 µg/mL
20,CCOC(=O)C1C2C=CC3(CN(Cc4ccccc4)C(=O)C13)O2 (stereo not drawn),> 47 µg/mL
21,CNC(=O)CSc1nnc(-c2ccco2)n1-c1cccc(C)c1C,> 51.4 µg/mL
22,O=C(c1cc(S(=O)(=O)N2CCOCC2)ccc1Cl)N1CCCCC1CO (stereo not drawn),> 60.4 µg/mL

# — PubChem BioAssay AID1996
